# From US9169252B2 (BRISTOL-MYERS SQUIBB COMPANY, priority 2014, dated 2015)
# Like-named read-outs stand apart in the source and are kept apart here.
# Legend:
# IRAK4 = IRAK4 (Homo sapiens (Human), UniProt Q9NWZ3); assay: IRAK4 Inhibition Assay; format: biochemical; conditions: ATP 500 μM, read-out: IRAK4 IC50
# How it was run: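 IRAK4 combined with fluorescent substrate and compounds, reacted 60 min at room temperature, stopped with 35 mM EDTA. Substrate and phosphorylated product separated electrophoretically on a Caliper LabChip 3000 mobility-shift reader.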
# [1] = tested on: TLR2 induced IL-6 in peripheral blood mononuclear cells (PBMCs); assay: PBMC TLR2 Induced IL-6 Assay; format: cell-based, human; conditions: IL-6 by ELISA; for IC50: read-out: Cell IC50; for EC50: read-out: Cell EC50
# How it was run: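 Lipoteichoic acid at 10 µg/ml served as TLR2 stimulus for 5 hours, following a 30-minute compound pretreatment at 37° C. Cells were Ficoll-isolated human PBMCs, 250000 cells/well, cultured in RPMI plus 10% heat-inactivated FCS.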
# [2] = Homo sapiens, PBMC, PBMC TLR2 Induced IL-6 Assay, lipoteichoic acid stimulation
# [3] = Homo sapiens, PBMC, human PBMCs, lipoteichoic acid stimulated
# Sequence of IRAK4 (Q9NWZ3 whole entry, species assumed): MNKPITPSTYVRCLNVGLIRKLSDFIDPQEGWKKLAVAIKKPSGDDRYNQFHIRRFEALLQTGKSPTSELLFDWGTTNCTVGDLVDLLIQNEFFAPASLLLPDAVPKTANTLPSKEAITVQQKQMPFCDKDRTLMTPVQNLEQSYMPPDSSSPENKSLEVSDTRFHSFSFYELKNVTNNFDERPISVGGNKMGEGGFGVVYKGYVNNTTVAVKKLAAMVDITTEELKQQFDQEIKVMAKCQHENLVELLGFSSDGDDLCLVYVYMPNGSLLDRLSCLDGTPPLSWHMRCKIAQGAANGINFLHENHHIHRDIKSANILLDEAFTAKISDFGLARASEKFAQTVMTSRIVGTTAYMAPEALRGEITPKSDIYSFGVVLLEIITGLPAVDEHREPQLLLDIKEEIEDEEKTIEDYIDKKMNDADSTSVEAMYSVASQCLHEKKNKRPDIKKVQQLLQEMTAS
Structure (SMILES),IC50 (IRAK4; IRAK4 Inhibition Assay),"IC50 [1, 2]",IC50 (IRAK4; IRAK4 0.6 nM),"EC50 [1, 2]",further results
CCCn1cc(Nc2cc(-n3cnc4cc(Cl)cnc43)ncc2C(=O)NC[C@@H](F)C(C)(C)O)cn1 [Example 382],2.5 nM,482 nM,–,–,–
CC(C)(O)[C@H](F)CNC(=O)c1cnc(-n2ncc3cc(C#N)cnc32)cc1NCC(C)(C)N1CCOCC1 [Example 570],–,–,10.7 nM,–,"EC50 [1, 3]: 425 nM"
CC(C)(O)[C@H](F)CNC(=O)c1cnc(-n2ncc3cc(C#N)cnc32)cc1NCCNS(C)(=O)=O [Example 586],–,–,9.7 nM,–,"IC50 [1, 3]: 259 nM"
CCCCNC(=O)c1cnc(-n2ncc3cc(C#N)cnc32)cc1NC(C)C [Example 199],6.3 nM,–,–,281 nM,–
"CNC(=O)[C@H]1CC[C@H](NC(=O)c2cnc(-n3ccc4cncnc43)cc2NC(C)C)CC1 [Example 81, 4-(isopropylamino)-N-((trans)-4-(methylcarbamoyl)cyclohexyl)-6-(7H-pyrrolo[2,3-d]pyrimidin-7-yl)nicotinamide]",14.2 nM,565 nM,–,121 nM,–
"C[C@H](CF)Nc1cc(-n2ccc3cc(C#N)cnc32)ncc1C(=O)NCCC(C)(C)O [Example 120, (R)-6-(5-cyano-1H-pyrrolo[2,3-b]pyridin-1-yl)-4-((1-fluoropropan-2-yl)amino)-N-(3-hydroxy-3-methylbutyl)nicotinamide]",5.1 nM,–,–,105 nM,–
"CC(C)Nc1cc(-n2ccc3cc(C#N)cnc32)ncc1C(=O)NC1CCc2nc(N)sc2C1 (stereo not drawn) [Example 73, N-(2-amino-4,5,6,7-tetrahydrobenzo[d]thiazol-6-yl)-6-(5-cyano-1H-pyrrolo[2,3-b]pyridin-1-yl)-4-(isopropylamino)nicotinamide]",13.1 nM,–,–,189 nM,–
CC(F)Cn1cc(Nc2cc(-n3cnc4cc(C#N)cnc43)ncc2C(=O)NC[C@@H](F)C(C)(C)O)cn1 (mixture of isomers) [Example 378],2.6 nM,655 nM,–,–,–
CC(C)(O)/C=C/Nc1cc(-n2ccc3cc(C#N)cnc32)ncc1C(=O)NC[C@@H](F)C(C)(C)O [Example 419],–,–,4.8 nM,–,"EC50 [1, 3]: 107 nM"
"Cc1cnc2c(cnn2-c2cc(NC(C)C)c(C(=O)NC[C@@H](F)C(C)(C)O)cn2)c1 [Example 155, (R)—N-(2-fluoro-3-hydroxy-3-methylbutyl)-4-(isopropylamino)-6-(5-methyl-1H-pyrazolo[3,4-b]pyridin-1-yl)nicotinamide]",7 nM,–,–,164 nM,–
CC(C)(O)[C@H](F)CNC(=O)c1cnc(-n2ccc3cc(C#N)cnc32)cc1N[C@@H]1CCN(S(C)(=O)=O)C1 [Example 465],–,–,1.3 nM,–,"EC50 [1, 3]: 7 nM; IC50 [1, 3]: 23 nM"
CC(C)Nc1cc(-n2ncc3cc(C#N)c(N)nc32)ncc1C(=O)NC1CCCCC1 [Example 324],6.6 nM,278 nM,–,–,–
"CC(C)Nc1cc(-n2ccc3cc(C#N)ccc32)ncc1C(=O)NC[C@@H](F)C(C)(C)O [Example 1, (R)-6-(5-Cyano-1H-indol-1-yl)-N-(2-fluoro-3-hydroxy-3-methylbutyl)-4-(isopropylamino)nicotinamide]",3.3 nM,873 nM,–,901 nM,–
CC(C)Nc1cc(-n2ncc3cc(C#N)cnc32)ncc1C(=O)NCCC1(O)CCOC1 (stereo not drawn) [Example 237],6.7 nM,364 nM,–,102 nM,–
CC(C)Nc1cc(-n2ncc3cc(C#N)cnc32)ncc1C(=O)NCCC1CCOCC1 [Example 310],4.5 nM,23 nM,–,–,–
CC(C)(O)[C@H](F)CNC(=O)c1cnc(-n2cnc3cc(Cl)cnc32)cc1Nc1cnn(C(F)F)c1 [Example 400],–,–,7.8 nM,–,"IC50 [1, 3]: 156 nM"
CC(C)Nc1cc(-n2ncc3cc(C#N)cnc32)ncc1C(=O)Nc1ccc(N2CCOCC2)cc1 [Example 222],5.1 nM,–,–,305 nM,–
CC(C)Nc1cc(-n2ncc3cc(C#N)cnc32)ncc1C(=O)Nc1ccc(N2CCOCC2)cn1 [Example 221],8.4 nM,–,–,230 nM,–
CC(C)Nc1cc(-n2ccc3cc(C#N)cnc32)ncc1C(=O)NCCCOC(C)(C)C [Example 417],–,–,5.5 nM,–,"EC50 [1, 3]: 171 nM"
"CNC(=O)[C@H]1CC[C@H](NC(=O)c2cnc(-n3ncc4cc(C#N)cnc43)cc2NC2CC2)CC1 [Example 140, 6-(5-cyano-1H-pyrazolo[3,4-b]pyridin-1-yl)-4-(cyclopropylamino)-N-((trans)-4-(methylcarbamoyl)cyclohexyl)nicotinamide]",8.3 nM,–,–,226 nM,–
CCn1nnnc1-c1ccc(Nc2cc(-n3ccc4cc(C#N)cnc43)ncc2C(=O)NC[C@@H](F)C(C)(C)O)cc1 [Example 433],–,–,4.1 nM,–,"EC50 [1, 3]: 164 nM; IC50 [1, 3]: 499 nM"
CCCn1cc(Nc2cc(-n3ccc4cc(C#N)cnc43)ncc2C(=O)NC[C@@H](F)C(C)(C)O)cn1 [Example 383],1.4 nM,113 nM,–,–,–

Structure (SMILES),IC50 (IRAK4; IRAK4 Inhibition Assay),"IC50 [1, 2]",IC50 (IRAK4; IRAK4 0.6 nM),"EC50 [1, 2]",further results
CC(C)CCNC(=O)c1cnc(-n2ncc3cc(C#N)cnc32)cc1NC1COC1 [Example 557],–,–,5.1 nM,–,"IC50 [1, 3]: 475 nM"
"CCNc1cc(-n2ncc3cc(C#N)cnc32)ncc1C(=O)NC[C@@H](F)C(C)(C)O [Example 138, (R)-6-(5-cyano-1H-pyrazolo[3,4-b]pyridin-1-yl)-4-(ethylamino)-N-(2-fluoro-3-hydroxy-3-methylbutyl)nicotinamide]",6.4 nM,–,–,152 nM,–
"CNC(=O)[C@H]1CC[C@H](NC(=O)c2cnc(-n3ccc4cc(C#N)ccc43)cc2NC(C)C)CC1 [Example 79, 6-(5-Cyano-1H-indol-1-yl)-4-(isopropylamino)-N-((trans)-4-(methylcarbamoyl)cyclohexyl)nicotinamide]",11.6 nM,436 nM,–,436 nM,–
CC(C)(O)[C@H](F)CNC(=O)c1cnc(-n2ccc3cc(C#N)cnc32)cc1NC1CCC(NCC(F)(F)F)C1 (stereo partly drawn) [Example 488],–,–,6.8 nM,–,"EC50 [1, 3]: 208 nM; IC50 ([1]; human PBMCs, lipoteichoic acid stimulated): 379 nM"
CC(C)(O)[C@H](F)CNC(=O)c1cnc(-n2ncc3cc(C#N)cnc32)cc1N[C@H]1CC[C@H](NC(=O)C(F)F)CC1 [Example 633],–,–,3.3 nM,–,"IC50 [1, 3]: 257 nM"
CC(C)(O)[C@H](F)CNC(=O)c1cnc(-n2ccc3cc(C#N)cnc32)cc1Nc1ccc2ncoc2c1 [Example 421],–,–,1.9 nM,–,"IC50 [1, 3]: 167 nM"
CCn1cc(Nc2cc(-n3ncc4cc(Cl)cnc43)ncc2C(=O)NC[C@@H](F)C(C)(C)O)cn1 [Example 357],1.7 nM,67 nM,–,–,–
CC(C)(O)[C@H](F)CNC(=O)c1cnc(-n2ncc3cc(C#N)cnc32)cc1Nc1cc(C2CC2)n[nH]1 [Example 404],–,–,1.1 nM,–,"IC50 [1, 3]: 164 nM"
CC(C)(O)[C@H](F)CNC(=O)c1cnc(-n2ncc3cc(F)cnc32)cc1NC1COC1 [Example 550],–,–,10.3 nM,–,"EC50 [1, 3]: 416 nM"
"CC(C)(O)CCNC(=O)c1cnc(-n2ccc3cncnc32)cc1NC1CCOCC1 [Example 43, N-(3-hydroxy-3-methylbutyl)-6-(7H-pyrrolo[2,3-d]pyrimidin-7-yl)-4-((tetrahydro-2H-pyran-4-yl)amino)nicotinamide]",6 nM,–,–,316 nM,–
CC(C)Nc1cc(-n2ncc3cc(C#N)cnc32)ncc1C(=O)Nc1ccc(N2CCN(C)CC2)cn1 [Example 241],7.3 nM,–,–,292 nM,–
CC(=O)Nc1ccc(CCNC(=O)c2cnc(-n3ncc4cc(C#N)cnc43)cc2NC(C)C)cc1 [Example 270],1.6 nM,348 nM,–,–,–
"CC(C)Nc1cc(-n2ccc3cnc(NCCO)nc32)ncc1C(=O)NC[C@@H](F)C(C)(C)O [Example 188, (R)—N-(2-fluoro-3-hydroxy-3-methylbutyl)-6-(2-((2-hydroxyethyl)amino)-7H-pyrrolo[2,3-d]pyrimidin-7-yl)-4-(isopropylamino)nicotinamide]",1.7 nM,–,–,57 nM,–
CC(C)Nc1cc(-n2cnc3cc(Cl)cnc32)ncc1C(=O)NC[C@@H](F)C(C)(C)O [Example 339],4 nM,332 nM,–,–,–
CC(C)Nc1cc(-n2ncc3cc(C#N)cnc32)ncc1C(=O)N[C@H]1CC[C@H](C(C)(C)O)C1 [Example 244],6.3 nM,–,–,259 nM,–
"CC(C)(O)[C@H](F)CNC(=O)c1cnc(-n2ccc3cc(C#N)cnc32)cc1Nc1cccc(C(N)=O)c1 [Example 56, (R)-4-((3-carbamoylphenyl)amino)-6-(5-cyano-1H-pyrrolo[2,3-b]pyridin-1-yl)-N-(2-fluoro-3-hydroxy-3-methylbutyl)nicotinamide]",2.5 nM,–,–,102 nM,–
C[C@H](F)CNc1cc(-n2ncc3cc(C#N)cnc32)ncc1C(=O)NC[C@@H](F)C(C)(C)O [Example 583],–,–,4.1 nM,–,"IC50 [1, 3]: 188 nM"
CC(C)(O)[C@H]1CC[C@H](NC(=O)c2cnc(-n3ncc4cc(C#N)cnc43)cc2Nc2cnn(CC(F)F)c2)CC1 [Example 396],–,–,8.6 nM,–,"IC50 [1, 3]: 157 nM"
CC(C)(O)[C@H](F)CNC(=O)c1cnc(-n2ncc3cc(C#N)cnc32)cc1Nc1cnn(S(C)(=O)=O)c1 [Example 385],0.9 nM,40 nM,–,–,–
CC(C)(O)[C@H](F)CNC(=O)c1cnc(-n2ncc3cc(C#N)cnc32)cc1Nc1cnn(C2CCOCC2)c1 [Example 349],3.3 nM,180 nM,–,–,–
CC(C)NC(=O)[C@H](F)CNc1cc(-n2ccc3cc(C#N)cnc32)ncc1C(=O)NC[C@@H](F)C(C)(C)O [Example 435],–,–,9.9 nM,–,"EC50 [1, 3]: 291 nM"
